Measurements as given in the supplement of paper PMC10307832.

Assays:
Experiment in all cases: relative viability (nuclei count vs DMSO), 5 days (fraction); higher = more cells survive
[1] = compound: CCn1c(-c2nonc2N)nc2cnc(Oc3cccc(NC(=O)c4ccc(OCCN5CCOCC5)cc4)c3)cc21 + O=C(CCCCCCC(=O)Nc1ccccc1)NO [Vorinostat] (partner 1 µM)
Summary of the method: (§1)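 Lung cancer cell lines in 1536-well plates got either a single drug or a fixed anchor-drug dose together with five library-drug doses (not always all listed) in √10 steps, by pin tool, on the day after seeding. Nuclei were counted after 5 days, and relative viability is the treated-to-vehicle ratio of nuclei counts. Values are medians of duplicate plates.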

[2] = compound: N=C1NC(=O)/C(=C/c2ccc(O)cc2)S1 [Mirin] + Cc1cc(Nc2cc(N3CCN(C)CC3)nc(Sc3ccc(NC(=O)C4CC4)cc3)n2)n[nH]1 [Tozasertib] (partner 0.1 µM)
Summary of the method: as §1

[3] = compound: N=C1NC(=O)/C(=C/c2ccc(O)cc2)S1 [Mirin] + Cc1nc(Nc2ncc(C(=O)Nc3c(C)cccc3Cl)s2)cc(N2CCN(CCO)CC2)n1 [Dasatinib] (partner 0.075 µM)
Summary of the method: as §1

[4] = compound: CCn1c(-c2nonc2N)nc2cnc(Oc3cccc(NC(=O)c4ccc(OCCN5CCOCC5)cc4)c3)cc21 + Cc1nc(NC(=O)N2CCC[C@H]2C(N)=O)sc1-c1ccnc(C(C)(C)C(F)(F)F)c1 [Alpelisib] (partner 2 µM)
Summary of the method: as §1

Row | Cell Line | relative viability ([1]; first compound 0.04 µM) | relative viability ([1]; first compound 0.1265 µM) | relative viability ([1]; first compound 0.4 µM) | relative viability ([1]; first compound 1.265 µM) | relative viability ([1]; first compound 4 µM) | relative viability ([2]; first compound 0.25 µM) | relative viability ([2]; first compound 0.7906 µM) | relative viability ([2]; first compound 2.5 µM) | relative viability ([2]; first compound 7.906 µM) | relative viability ([2]; first compound 25 µM) | relative viability ([3]; first compound 0.25 µM) | relative viability ([3]; first compound 0.7906 µM) | relative viability ([3]; first compound 2.5 µM) | relative viability ([3]; first compound 7.906 µM) | relative viability ([3]; first compound 25 µM) | relative viability ([4]; first compound 0.04 µM) | relative viability ([4]; first compound 0.1265 µM) | relative viability ([4]; first compound 0.4 µM) | relative viability ([4]; first compound 1.265 µM) | relative viability ([4]; first compound 4 µM)
1 | NCI-H2023 | 1.02 | 0.675 | 0.669 | 0.429 | 0.334 | 0.343 | 0.354 | 0.38 | 0.27 | 0.188 | 0.562 | 0.541 | 0.548 | 0.463 | 0.335 | 0.715 | 0.666 | 0.66 | 0.549 | 0.425
2 | LC-2-ad | 0.728 | 0.618 | 0.258 | 0.29 | 0.277 | 0.459 | 0.35 | 0.476 | 0.342 | 0.256 | 0.588 | 0.504 | 0.668 | 0.386 | 0.368 | 0.945 | 0.542 | 0.797 | 0.658 | 0.515
3 | NCI-H1666 | 1.13 | 1.05 | 1.12 | 1.05 | 1.03 | 0.625 | 0.621 | 0.582 | 0.519 | 0.518 | 0.93 | 0.807 | 0.846 | 0.709 | 0.681 | 1.45 | 1.21 | 1.06 | 0.606 | 0.513
4 | 201T | 1.07 | 0.882 | 0.717 | 0.876 | 0.896 | 0.929 | 0.982 | 0.88 | 0.881 | 0.599 | 0.595 | 0.636 | 0.545 | 0.474 | 0.598 | 1.02 | 1.01 | 0.966 | 1.05 | 0.954
5 | NCI-H2009 | 0.632 | 0.582 | 0.56 | 0.429 | 0.277 | 0.707 | 0.785 | 0.725 | 0.614 | 0.556 | 0.292 | 0.341 | 0.323 | 0.227 | 0.139 | 1.01 | 0.987 | 0.857 | 0.745 | 0.5
6 | NCI-H1395 | 0.753 | 0.604 | 0.658 | 0.441 | 0.44 | 0.703 | 0.857 | 0.66 | 0.772 | 0.72 | 0.439 | 0.434 | 0.429 | 0.376 | 0.418 | 1.26 | 0.877 | 0.948 | 0.493 | 0.634
7 | NCI-H23 | 0.735 | 0.526 | 0.3 | 0.531 | 0.55 | 0.496 | – | 0.427 | 0.288 | 0.256 | 0.934 | – | 0.77 | 0.604 | 0.555 | 0.874 | 0.831 | – | 0.604 | 0.495
8 | LU99A | 0.583 | 0.376 | 0.3 | 0.427 | 0.384 | 0.241 | 0.216 | 0.27 | 0.207 | 0.18 | 0.574 | 0.564 | 0.509 | 0.423 | 0.531 | 0.769 | 0.642 | 0.447 | 0.51 | 0.46
9 | NCI-H1437 | 0.88 | 0.93 | 0.903 | 0.682 | 0.512 | 0.451 | 0.407 | 0.372 | 0.343 | 0.377 | 0.405 | 0.41 | 0.386 | 0.309 | 0.347 | 1.06 | 0.888 | 0.833 | 0.809 | 0.753
